Columns and labels:
control strain MG1655 = assay: C. elegans infection system: control strain bacteria recovered from the nematode gut after treatment; type: in vivo, E. coli; settings: MG1655-fed C. elegans; 100 μg/mL gentamicin, 50 μg/mL kanamycin, 7 μg/mL heparin or 0.01% mannose in M9 buffer, 24 hours at 26° C.; P<0.001 for all compounds tested; FIG. 4
Procedure: (§1) Nematodes were infected with prototypical ETEC H10407 or control MG1655 strains on NGM agar. After 24 hours of infection, 30 nematodes were harvested and placed in 1 mL M9 buffer (black bars), or M9 buffer supplemented with 100 μg/mL gentamicin (white bars), 50 μg/mL kanamycin (cross-hatched bars), 7 μg/mL heparin (checkered bars), or 0.01% mannose (speckled bars), and incubated at 26° C. for 24 hours. Values represent the means of three replicate assays, and error bars indicate 1 SD.
In one embodiment, a C. elegans/ETEC infection system can be used to screen for chemotherapeutic agents able to disrupt colonization of the nematode gut. In another embodiment, a C. elegans/ETEC infection system may be used to test a range of compounds including, for purposes of example only, the bacteriocidal antibiotic gentamicin, bacteriostatic antibiotic kanamycin, heparin, which may disrupt bacterial adherence, and mannose, which inhibits type I fimbria-mediated adherence to host cells. Age-synchronized L4 nematodes were placed on NGM agar inoculated with either strain H10407 or the control MG1655. Twenty-four hours post-infection, 30 nematodes fed each strain were placed in M9 buffer or M9 buffer supplemented with the desired compounds. After an additional 24 hours of incubation at 26° C., nematodes were harvested, washed to remove exterior bacteria, pulverized and plated on selective LB agar. […]

ETEC strain H10407 = assay: C. elegans/ETEC infection system: screen of chemotherapeutic agents against colonization of the nematode gut; type: in vivo, E. coli; settings: ETEC H10407-infected C. elegans, 24 hours at 26° C.
Procedure: as §1
In one embodiment, a C. elegans/ETEC infection system can be used to screen for chemotherapeutic agents able to disrupt colonization of the nematode gut. In another embodiment, a C. elegans/ETEC infection system may be used to test a range of compounds including, for purposes of example only, the bacteriocidal antibiotic gentamicin, bacteriostatic antibiotic kanamycin, heparin, which may disrupt bacterial adherence, and mannose, which inhibits type I fimbria-mediated adherence to host cells. Age-synchronized L4 nematodes were placed on NGM agar inoculated with either strain H10407 or the control MG1655. Twenty-four hours post-infection, 30 nematodes fed each strain were placed in M9 buffer or M9 buffer supplemented with the desired compounds. After an additional 24 hours of incubation at 26° C., nematodes were harvested, washed to remove exterior bacteria, pulverized and plated on selective LB agar.
After 3 days at 26° C., L4 nematodes were removed from feeding using a platinum wire and placed on rifampin-containing NGM agar plates with pre-grown ETEC and control strains that were incubated at 37° C. overnight. Prior to seeding of C. elegans, NGM and CFA agar plates were shifted to 26° C., the temperature where they remained for the duration of the assay. For the standard plate count assay, nematodes were fed on ETEC and control strains for 24 hours. […]

[1] = system: enteropathogenic E. coli (EPEC) strain E2348/69; assay: C. elegans infection system: EPEC bacteria recoverable from the nematode gut after treatment; type: in vivo; settings: EPEC E2348/69-infected C. elegans; gentamicin; data not shown
Text: With continued reference to FIG. 4, there was no significant difference in the number of recoverable ETEC bacteria after treatment with any of the other compounds tested. […] The present invention therefore also includes a C. elegans small animal infection model for studying EPEC. Accordingly, a C. elegans infection system could be used to screen for potentially therapeutic chemical agents against multiple E. coli pathotypes.

Substance: heparin
- reduction in the number of bacteria recovered from the nematode gut, significance (control strain MG1655): significant reduction

Substance: gentamicin
- reduction in the number of ETEC bacteria recoverable from the nematode gut (vs M9 buffer), significance (ETEC strain H10407; 100 μg/mL gentamicin, 50 μg/mL kanamycin, 7 μg/mL heparin or 0.01% mannose in M9 buffer, FIG. 4): significant (P=0.004) reduction
- size of the reduction in recoverable ETEC bacteria, M9 buffer versus M9 buffer supplemented with gentamicin (ETEC strain H10407; 100 μg/mL gentamicin): approximately one order of magnitude
- mean number of bacteria recoverable from the nematode gut after incubation (ETEC strain H10407; M9 buffer supplemented with 100 μg/mL gentamicin, FIG. 4): 1×10^4 CFU per nematode
- reduction in the number of EPEC bacteria recoverable from the nematode gut compared to untreated EPEC-infected nematodes [1]: approximately one order of magnitude
- reduction in the number of bacteria recovered from the nematode gut, significance (control strain MG1655): significant reduction

Source: patent US8216592B2, “Infection model for developing chemotherapeutic agents” (priority 2007, dated 2012)
